# Reference: patent US4973576A, “Bisphophonic acid derivatives and pharmaceutical compositions containing the same” (Yamanouchi Pharmaceutical Co., Ltd., priority 1987, dated 1990)
# “And” between values parts separate entries of the source, which are not always exact repeats. Identical values can stand only once.
# Experiments:
# [1] = tested on: hypercalcemia induced by administration of parathyroid hormone (PTH); assay: Inhibitory effect on hypercalcemia induced by PTH in rats (serum Ca++); type: in vivo, male Wistar rats; conditions: mean ± S.E.
# Description: Rats of hypercalcemia induced by administration of parathyroid hormone (hereinafter referred to as "PTH") were used, and the decrement of the serum calcium amount by administration of the compound was measured.
# 30 μg/kg of human 1-34 PTH (manufactured by Peptide Laboratory) which was dissolved in a 0.1% BSA (bovine serum albumin)-containing physiological saline (content of the PTH is 6 μg/ml) was intravenously injected in an amount of 30 μg/kg (5 ml/kg as the solution) to 5-week male Wistar rats which had been fasting for 20 hours. Only 0.1% BSA-containing physiological saline was injected to the normal control group in the same manner. 45 minutes after the PTH injection, the rats were etherized and then subjected to celiotomy, whereby the blood was collected from the abdominal cava with a vacuum blood-collecting tube. The blood collected was immediately centrifuged by 3000 rpm, at 4° C. for 10 minutes to isolate the serum. The ionized calcium (Ca^++) concentration in the serum was immediately measured with a Ca^++ meter (Sera 250, manufactured by Horiba Manufacturing Co.).
# The compounds of the present invention were dissolved using sodium hydroxide and hydrochloric acid, in physiological saline (pH 7.4), for subcutaneous administration, in such amounts that the dose amounted to 2 ml/kg, and for oral administration, in distilled water (pH 7.4) so that the dose amounted to 5 ml/kg. They were administered 24 or 72 hours before the PTH injection. A physiological saline or a distilled water was administered to the normal control group and the control group, in the same manner. Salmon calcitonin (SCT, manufactured by Armour Co.) was dissolved in physiological saline so that the dose amounted to 2 ml/kg, and then subcutaneously administered 30 minutes before the PTH injection.
# The results for each group were expressed in terms of mean±S.E. (standard error) and comparison was made among the groups by testing by one-way analysis of variance. The significance level was taken at 5%.
# [2] = tested on: immobilization-induced atrophy of bone; assay: Inhibition of bone resorption: immobilization-induced (neurectomy) atrophy of bone in rats; type: in vivo, Wistar rats; conditions: for Left humerus Ashed weight / Left humerus Ashed weight / Dry weight / Left humerus Dry weight: 2 weeks
# adjuvant arthritis [3] = assay: Experiment (3)-I: therapeutic effect on adjuvant arthritis in rats; type: in vivo, male Lewis rats; conditions: po
# Description: (§1) Specifically, for investigation of the anti-arthritic effect, experimental models of adjuvant arthritis which is resemble to rheumatoid arthritis in human were used in two test methods. In one method to test the therapeutic effect of the compounds, the compounds to be tested were administered to the animals already having the adjuvant arthritis. In the other method to test the prophylactic effect of the compounds, these were administered after the adjuvant administration, and the expression and progress of the resulting arthritis, if any, was observed.
# 0.1 ml of a suspension of dry dead cells of Mycobacterium butyricum as suspended in liquid paraffin in a proportion of 6 mg/ml was subcutaneously injected to male Lewis rats (7-week) in the tail. After 17 or 18 days, the thickness of the both hind paws was measured. One group comprising six rats in which the arthritis was noticeably observed was isolated. After the grouping day, the compound to be tested was subcutaneously or orally administered once a day for 14 days to the rats. Next day after the last administration, the thickness of the soles of the both hind legs was again measured.
# (§2) For the Experiments (3)-I and (3)-II, the compounds of the present invention were dissolved, using sodium hydroxide and hydrochloric acid in physiological saline (pH 7.4), for subcutaneous administration, in such amount that the dose amounted to 2 ml/kg, and for oral administration, in distilled water (pH 7.4) so that the dose amounted to 5 ml/kg; and indometacin (as comparative drug) was suspended in 0.5% methyl cellulose solution so that the dose amounted to 5 ml/kg. Each rat was weighed at the first day of starting the administration of the compound to be tested and at the last day of the administration of the compound, and the difference of the weight there between (ΔB.W.) was obtained.
# (§3) The results for each group were expressed in terms of mean ±S.E. (standard error) and comparison was made among the groups by testing by one-way analysis of variance. The significance level was taken at 5%.
# adjuvant arthritis [4] = assay: Experiment (3)-II: prophylactic effect on adjuvant arthritis in rats; type: in vivo, male Lewis rats; conditions: po, 1 mg/kg once a day 21 days
# Description: as §1
# 0.05 ml of the suspension of dry dead bacilli of Mycobacterium butyricum as suspended in liquid paraffin in a proportion of 6 mg/ml was subcutaneously injected to male Lewis rats (6 to 7-week) in the left hind paw. After the adjuvant injection, the compound to be tested was administered to the rats once a day for 21 days. Next day after the last administration, the thickness of the both hind paws of the rats was measured.
# as §2, §3
# [5] = sc, 0.1 mg/kg, 72 hours before PTH injection
# [6] = sc, 0.3 mg/kg, 72 hours before PTH injection
# [7] = oral, 30 mg/kg, 72 hours before PTH injection
# [8] = oral, 100 mg/kg, 72 hours before PTH injection
# [9] = sc, 30 mg/kg, 24 hours before PTH injection
# [10] = sc, 0.01 mg/kg, 72 hours before PTH injection
# [11] = sc, 0.03 mg/kg, 72 hours before PTH injection
# [12] = sc, 1.0 mg/kg, 72 hours before PTH injection
# [13] = 1 mg/kg once a day 14 days, 1 mg/kg
smiles,measurement,setting,value
"CC(O)(P(=O)(O)O)P(=O)(O)O [Etidronate, 1-hydroxyethylidene-1,1-bisphosphonic acid, reference compound]",Serum Ca++,"[1]; sc, 10 mg/kg, 72 hours before PTH injection",1.44 ± 0.01 m mole/liter
same,Serum Ca++,"[1]; sc, 30 mg/kg, 72 hours before PTH injection",1.40 ± 0.01 m mole/liter
"O=P(O)(O)C(Nc1cc(C2CC2)on1)P(=O)(O)O [Example 6, [(5-cyclopropyl-3-isoxazolyl)-amino]-methylene-bis(phosphonic acid)]",Serum Ca++,[1]; [5],1.42 ± 0.02 m mole/liter
same,Serum Ca++,[1]; [6],1.25 ± 0.02 m mole/liter
CCCc1cc(NC(P(=O)(O)O)P(=O)(O)O)no1 [Example 8],Serum Ca++,[1]; [7],1.48 ± 0.02 m mole/liter
same,Serum Ca++,[1]; [8],1.35 ± 0.02 m mole/liter
same,Serum Ca++,[1]; [5],1.41 ± 0.02 m mole/liter
same,Serum Ca++,[1]; [6],1.27 ± 0.02 m mole/liter
"CC(=O)N(c1cc(C)on1)C(P(=O)(O)O)P(=O)(O)O [Example 12, [N-acetyl(5-methyl-3-isoxazolyl)amino]methylene-bis(phosphonic acid)]",Serum Ca++,[1]; [9],1.44 ± 0.02 m mole/liter
"CCOP(=O)(O)C(Nc1cc(C)on1)P(=O)(O)O (stereo not drawn) [Example 14, ethyl [(5-methyl-3-isoxazolyl)amino]methylene-bis(phosphonate)]",Serum Ca++,[1]; [9],1.45 ± 0.02 m mole/liter
"CCCCCc1cc(NC(P(=O)(O)O)P(=O)(O)O)no1 [Example 21, [(5-n-pentyl-3-isoxazolyl)amino]methylene-bis(phosphonic acid)]",Serum Ca++,"[1]; oral, 10 mg/kg, 72 hours before PTH injection",1.52 ± 0.02 m mole/liter
same,Serum Ca++,[1]; [7],1.36 ± 0.06 m mole/liter
same,Serum Ca++,[1]; [8],1.33 ± 0.04 m mole/liter
same,Serum Ca++,[1]; [10],1.47 ± 0.02 m mole/liter
same,Serum Ca++,[1]; [11],1.38 ± 0.01 m mole/liter
same,Serum Ca++,[1]; [5],1.22 ± 0.003 m mole/liter
same,Left humerus Ashed weight,"[2]; oral, 3 mg/kg",64.4 ± 2.3 mg
same,Left humerus Ashed weight / Dry weight,"[2]; oral, 3 mg/kg",54.4 ± 0.2%
same,Left humerus Dry weight,"[2]; oral, 3 mg/kg",113.0 ± 3.1 mg
same,Left humerus Ashed weight,"[2]; oral, 10 mg/kg",67.0 ± 1.2 mg
same,Left humerus Ashed weight / Dry weight,"[2]; oral, 10 mg/kg",56.0 ± 0.4%
same,Left humerus Dry weight,"[2]; oral, 10 mg/kg",115.2 ± 4.0 mg
same,Left humerus Ashed weight,"[2]; oral, 30 mg/kg",65.7 ± 0.9 mg
same,Left humerus Ashed weight / Dry weight,"[2]; oral, 30 mg/kg",56.5 ± 0.2%
same,Left humerus Dry weight,"[2]; oral, 30 mg/kg",118.7 ± 2.0 mg
same,Left humerus Ashed weight,"[2]; sc, 0.01 mg/kg",65.7 ± 0.9 mg
same,Left humerus Ashed weight / Dry weight,"[2]; sc, 0.01 mg/kg",56.4 ± 0.2%
same,Left humerus Dry weight,"[2]; sc, 0.01 mg/kg",116.5 ± 1.5 mg
same,Left humerus Ashed weight,"[2]; sc, 0.03 mg/kg",73.6 ± 0.7 mg
same,Left humerus Ashed weight / Dry weight,"[2]; sc, 0.03 mg/kg",56.9 ± 0.2%
same,Left humerus Dry weight,"[2]; sc, 0.03 mg/kg",129.2 ± 1.0 mg
same,Left humerus Ashed weight,"[2]; sc, 0.1 mg/kg",72.8 ± 1.8 mg
same,Left humerus Ashed weight / Dry weight,"[2]; sc, 0.1 mg/kg",55.9 ± 0.4%
same,Left humerus Dry weight,"[2]; sc, 0.1 mg/kg",130.1 ± 3.2 mg
same,Thickness of Paw (average of right and left paws),adjuvant arthritis [3]; 10 mg/kg once a day 14 days,1317 ± 35 × 0.01 mm
same,ΔB.W.,adjuvant arthritis [3]; 10 mg/kg once a day 14 days,29.7 ± 1.1 g
same,Thickness of Paw (average of right and left paws),adjuvant arthritis [3]; 30 mg/kg once a day 14 days,1321 ± 35 × 0.01 mm
same,ΔB.W.,adjuvant arthritis [3]; 30 mg/kg once a day 14 days,30.0 ± 1.1 g
same,Thickness of Paw (average of right and left paws),adjuvant arthritis [3]; 100 mg/kg once a day 14 days,1119 ± 52 × 0.01 mm
same,ΔB.W.,adjuvant arthritis [3]; 100 mg/kg once a day 14 days,29.7 ± 4.5 g
CCCCCCc1cc(NC(P(=O)(O)O)P(=O)(O)O)no1 [Example 22],Serum Ca++,[1]; [7],1.44 ± 0.02 m mole/liter
same,Serum Ca++,[1]; [8],1.28 ± 0.04 m mole/liter
same,Serum Ca++,[1]; [10],1.45 ± 0.01 m mole/liter
same,Serum Ca++,[1]; [11],1.35 ± 0.01 m mole/liter
same,Serum Ca++,[1]; [5],1.21 ± 0.02 m mole/liter
CCCCCCCc1cc(NC(P(=O)(O)O)P(=O)(O)O)no1 [Example 23],Serum Ca++,[1]; [7],1.49 ± 0.00 m mole/liter
same,Serum Ca++,[1]; [8],1.41 ± 0.02 m mole/liter
same,Serum Ca++,[1]; [11],1.40 ± 0.01 m mole/liter
same,Serum Ca++,[1]; [5],1.33 ± 0.01 m mole/liter
CC(C)CCc1cc(NC(P(=O)(O)O)P(=O)(O)O)no1 [Example 25],Serum Ca++,[1]; [5],1.39 ± 0.02 m mole/liter
same,Serum Ca++,[1]; [12],1.36 ± 0.02 m mole/liter
"CCCCc1cc(NC(P(=O)(O)O)P(=O)(O)O)no1 [Example 28, [(5-n-butyl-3-isoxazolyl)amino]methylene-bis(phosphonic acid)]",Serum Ca++,[1]; [7],1.46 ± 0.02 m mole/liter
same,Serum Ca++,[1]; [8],1.31 ± 0.04 m mole/liter
same,Serum Ca++,[1]; [5],1.36 ± 0.01 m mole/liter
same,Serum Ca++,[1]; [6],1.18 ± 0.02 m mole/liter
"CC(C)=CCCc1cc(NC(P(=O)(O)O)P(=O)(O)O)no1 [Example 31, [[5-(4-methyl-3-ene)pentyl-3-isoxazolyl]amino]methylene-bis(phosphonic acid)]",Serum Ca++,[1]; [5],1.20 ± 0.01 m mole/liter
same,Serum Ca++,[1]; [6],1.05 ± 0.03 m mole/liter
O=P(O)(O)C(Nc1cc(/C=C/c2ccccc2)on1)P(=O)(O)O [Example 32],Serum Ca++,[1]; [5],1.41 ± 0.02 m mole/liter
same,Serum Ca++,[1]; [6],1.27 ± 0.02 m mole/liter
"COc1ccc2c(c1)c(CC(=O)O)c(C)n2C(=O)c1ccc(Cl)cc1 [Indometacin, reference compound]",Thickness of Paw (average of right and left paws),adjuvant arthritis [3]; [13],956 ± 32 × 0.01 mm and 1044 ± 46 × 0.01 mm and 931 ± 26 × 0.01 mm
same,ΔB.W.,adjuvant arthritis [3]; [13],67 ± 4 g and 51 ± 4 g and 58.2 ± 1.9 g
same,ΔB.W.,adjuvant arthritis [4],261 ± 7 g
same,"Thickness of Paw, Left",adjuvant arthritis [4]; adjuvant-injected paw,1096 ± 41 × 0.01 mm
same,"Thickness of Paw, Right",adjuvant arthritis [4]; opposite paw,1028 ± 47 × 0.01 mm
"CC(C)(C)c1cc(NC(P(=O)(O)O)P(=O)(O)O)no1 [Known Compound (note-1), [(5t-butyl-3-isoxazolyl)amino]methylenebis(phosphonic acid), reference compound]",Serum Ca++,[1]; [6],1.51 ± 0.03 m mole/liter
same,Serum Ca++,[1]; [12],1.43 ± 0.02 m mole/liter
"CC(C)c1cc(NC(P(=O)(O)O)P(=O)(O)O)no1 [Known Compound (note-2), [(5isopropyl-3-isoxazolyl)amino]methylenebis(phosphonic acid), reference compound]",Serum Ca++,[1]; [5],1.58 ± 0.00 m mole/liter
same,Serum Ca++,[1]; [6],1.49 ± 0.01 m mole/liter
same,Serum Ca++,[1]; [12],1.39 ± 0.02 m mole/liter
"CCc1cc(NC(P(=O)(O)O)P(=O)(O)O)no1 [Manufacture Example 2, [(5-ethyl-3-isoxazolyl)amino]methylene-bis(phosphonic acid)]",Serum Ca++,[1]; [7],1.46 ± 0.02 m mole/liter
same,Serum Ca++,[1]; [8],1.16 ± 0.07 m mole/liter
same,Serum Ca++,[1]; [5],1.39 ± 0.02 m mole/liter
same,Serum Ca++,[1]; [6],1.22 ± 0.02 m mole/liter
same,Serum Ca++,[1]; [9],1.41 ± 0.02 m mole/liter
same,Difference of Bone Ash Content (b),"[2]; sc, 1.0 mg/kg once a day 14 days, nontreated minus treated humerus ashed weight",3.0 ± 0.7 mg
same,Difference of Bone Weight (a),"[2]; sc, 1.0 mg/kg once a day 14 days, nontreated minus treated humerus dry weight",4.8 ± 1.3 mg
"Cc1conc1NC(P(=O)(O)O)P(=O)(O)O [Manufacture Example 3, [(4-methyl-3-isoxazolyl)amino]methylene-bis(phosphonic acid)]",Serum Ca++,[1]; [6],1.45 ± 0.01 m mole/liter
same,Serum Ca++,[1]; [12],1.23 ± 0.05 m mole/liter
